Activity calls are given as the source filed them. The rule behind the calls is not given here.
Assays:
NCI-H226 = test: Antiproliferative activity against human NCI-H226 cells assessed as cell growth at 10 uM incubated for 48 hrs by sulforhodamine B assay relative to control; type: functional; conditions: read-out: Activity
UACC-257 = test: Antiproliferative activity against human UACC-257 cells assessed as cell growth at 10 uM incubated for 48 hrs by sulforhodamine B assay relative to control; type: functional; conditions: read-out: Activity
786-0 = test: Antiproliferative activity against human 786-0 cells assessed as cell growth at 10 uM incubated for 48 hrs by sulforhodamine B assay relative to control; type: functional; conditions: read-out: Activity
UO-31 = test: Antiproliferative activity against human UO-31 cells assessed as cell growth at 10 uM incubated for 48 hrs by sulforhodamine B assay relative to control; type: functional; conditions: read-out: Activity
MCF7 [1] = test: Antiproliferative activity against human MCF7 cells assessed as cell growth at 10 uM incubated for 48 hrs by sulforhodamine B assay relative to control; type: functional; conditions: read-out: Activity
UACC-62 = test: Antiproliferative activity against human UACC-62 cells assessed as cell growth at 10 uM incubated for 48 hrs by sulforhodamine B assay relative to control; type: functional; conditions: read-out: Activity
T47D = test: Antiproliferative activity against human T47D cells assessed as cell growth at 10 uM incubated for 48 hrs by sulforhodamine B assay relative to control; type: functional; conditions: read-out: Activity
MDA-MB-231 = test: Antiproliferative activity against human MDA-MB-231 cells assessed as cell growth at 10 uM incubated for 48 hrs by sulforhodamine B assay relative to control; type: functional; conditions: read-out: Activity
RPMI-8226 = test: Antiproliferative activity against human RPMI-8226 cells assessed as cell growth at 10 uM incubated for 48 hrs by sulforhodamine B assay relative to control; type: functional; conditions: read-out: Activity
HL-60 = test: Antiproliferative activity against human HL-60 cells assessed as cell growth at 10 uM incubated for 48 hrs by sulforhodamine B assay relative to control; type: functional; conditions: read-out: Activity
K562 = test: Antiproliferative activity against human K562 cells assessed as cell growth at 10 uM incubated for 48 hrs by sulforhodamine B assay relative to control; type: functional; conditions: read-out: Activity
LA-N-5 = test: Antiproliferative activity against human LA-N-5 cells assessed as reduction in cell growth at 10 to 100 uM incubated for 4 hrs by MTS assay; type: functional, cell-based; conditions: dose 10-100 µM
SNB-75 = test: Antiproliferative activity against human SNB-75 cells assessed as cell growth at 10 uM incubated for 48 hrs by sulforhodamine B assay relative to control; type: functional; conditions: read-out: Activity
NCI-H522 = test: Antiproliferative activity against human NCI-H522 cells assessed as cell growth at 10 uM incubated for 48 hrs by sulforhodamine B assay relative to control; type: functional; conditions: read-out: Activity
PC-3 = test: Antiproliferative activity against human PC-3 cells assessed as cell growth at 10 uM incubated for 48 hrs by sulforhodamine B assay relative to control; type: functional; conditions: read-out: Activity
SR = test: Antiproliferative activity against human SR cells assessed as cell growth at 10 uM incubated for 48 hrs by sulforhodamine B assay relative to control; type: functional; conditions: read-out: Activity
MCF7 [2] = test: Antiproliferative activity against human MCF7 cells assessed as reduction in cell growth at 10 to 100 uM incubated for 4 hrs by MTS assay; type: functional, cell-based; conditions: dose 10-100 µM
CAKI-1 = test: Antiproliferative activity against human CAKI-1 cells assessed as cell growth at 10 uM incubated for 48 hrs by sulforhodamine B assay relative to control; type: functional; conditions: read-out: Activity
MOLT-4 = test: Antiproliferative activity against human MOLT-4 cells assessed as cell growth at 10 uM incubated for 48 hrs by sulforhodamine B assay relative to control; type: functional; conditions: read-out: Activity
CCRF-CEM = test: Antiproliferative activity against human CCRF-CEM cells assessed as cell growth at 10 uM incubated for 48 hrs by sulforhodamine B assay relative to control; type: functional; conditions: read-out: Activity
HCT-116 = test: Antiproliferative activity against human HCT-116 cells assessed as cell growth at 10 uM incubated for 48 hrs by sulforhodamine B assay relative to control; type: functional; conditions: read-out: Activity
A549 = test: Antiproliferative activity against human A549 cells assessed as cell growth at 10 uM incubated for 48 hrs by sulforhodamine B assay relative to control; type: functional; conditions: read-out: Activity
HCT-15 = test: Antiproliferative activity against human HCT-15 cells assessed as cell growth at 10 uM incubated for 48 hrs by sulforhodamine B assay relative to control; type: functional; conditions: read-out: Activity
ACHN = test: Antiproliferative activity against human ACHN cells assessed as cell growth at 10 uM incubated for 48 hrs by sulforhodamine B assay relative to control; type: functional; conditions: read-out: Activity
HOP-62 = test: Antiproliferative activity against human HOP-62 cells assessed as cell growth at 10 uM incubated for 48 hrs by sulforhodamine B assay relative to control; type: functional; conditions: read-out: Activity
IGROV-1 = test: Antiproliferative activity against human IGROV-1 cells assessed as cell growth at 10 uM incubated for 48 hrs by sulforhodamine B assay relative to control; type: functional; conditions: read-out: Activity
LOX IMVI = test: Antiproliferative activity against human LOX IMVI cells assessed as cell growth at 10 uM incubated for 48 hrs by sulforhodamine B assay relative to control; type: functional; conditions: read-out: Activity
SF-295 = test: Antiproliferative activity against human SF-295 cells assessed as cell growth at 10 uM incubated for 48 hrs by sulforhodamine B assay relative to control; type: functional; conditions: read-out: Activity
SK-OV-3 = test: Antiproliferative activity against human SK-OV-3 cells assessed as cell growth at 10 uM incubated for 48 hrs by sulforhodamine B assay relative to control; type: functional; conditions: read-out: Activity
MDA-MB-435 = test: Antiproliferative activity against human MDA-MB-435 cells assessed as cell growth at 10 uM incubated for 48 hrs by sulforhodamine B assay relative to control; type: functional; conditions: read-out: Activity
MDA-MB-468 = test: Antiproliferative activity against human MDA-MB-468 cells assessed as cell growth at 10 uM incubated for 48 hrs by sulforhodamine B assay relative to control; type: functional; conditions: read-out: Activity
KM12 = test: Antiproliferative activity against human KM12 cells assessed as cell growth at 10 uM incubated for 48 hrs by sulforhodamine B assay relative to control; type: functional; conditions: read-out: Activity
EKVX = test: Antiproliferative activity against human EKVX cells assessed as cell growth at 10 uM incubated for 48 hrs by sulforhodamine B assay relative to control; type: functional; conditions: read-out: Activity
HT-29 = test: Antiproliferative activity against human HT-29 cells assessed as cell growth at 10 uM incubated for 48 hrs by sulforhodamine B assay relative to control; type: functional; conditions: read-out: Activity
MCF7 [3] = test: Antiproliferative activity against human MCF7 cells assessed as inhibition of cell growth incubated for 4 hrs by MTS assay; type: functional
HeLa = test: Antiproliferative activity against human HeLa cells assessed as inhibition of cell growth incubated for 4 hrs by MTS assay; type: functional
[4] = Antiproliferative activity against human 16HBE14o- cells assessed as inhibition of cell growth incubated for 4 hrs by MTS assay; type: toxicity, cell-based; conditions: read-out: IG50

Row | Structure (SMILES) | growth at 10 µM (NCI-H226) [%] | growth at 10 µM (UACC-257) [%] | growth at 10 µM (786-0) [%] | growth at 10 µM (UO-31) [%] | growth at 10 µM (MCF7 [1]) [%] | growth at 10 µM (UACC-62) [%] | growth at 10 µM (T47D) [%] | growth at 10 µM (MDA-MB-231) [%] | growth at 10 µM (RPMI-8226) [%] | growth at 10 µM (HL-60) [%] | growth at 10 µM (K562) [%] | growth at 10 µM (SNB-75) [%] | growth at 10 µM (NCI-H522) [%] | growth at 10 µM (PC-3) [%] | growth at 10 µM (SR) [%] | Activity (MCF7 [2]) | growth at 10 µM (CAKI-1) [%] | growth at 10 µM (MOLT-4) [%] | growth at 10 µM (CCRF-CEM) [%] | growth at 10 µM (HT-29) [%] | also measured
1 | CC(=O)c1c(C)n(-c2ccccc2)c2c1c(-c1ccccc1)nc1ccccc12 | 84.2 | 98.1 | 88.5 | 59.6 | 89.6 | 70.4 | 102 | 76.3 | 87.5 | 90.7 | 76.8 | 75.1 | 77 | 85.7 | 79.5 | Active | 72.3 | 77.6 | 95.9 | – | Activity (LA-N-5): Active
2 | CC(=O)c1c(C)n(CCCCl)c2c1c(-c1ccc3c(c1)OCO3)nc1ccccc12 | 115 | 102 | – | 85.4 | 83.2 | – | 71.5 | 95.8 | 83.3 | – | 71 | 69.4 | 63.7 | 76.2 | 53.1 | – | 86.7 | 67.3 | 77.1 | – | growth at 10 µM (HCT-116): 93.6%; growth at 10 µM (A549): 81.7%; growth at 10 µM (HCT-15): 87%; growth at 10 µM (ACHN): 84.4%; growth at 10 µM (HOP-62): 96.7%; growth at 10 µM (IGROV-1): 93.9%; growth at 10 µM (LOX IMVI): 90%; growth at 10 µM (SF-295): 76.7%; growth at 10 µM (SK-OV-3): 97.2%; growth at 10 µM (MDA-MB-435): 93.6%; growth at 10 µM (MDA-MB-468): 101%; growth at 10 µM (KM12): 87.3%; growth at 10 µM (EKVX): 86%
3 | CC(=O)c1c(C)n(-c2ccccc2)c2c1c(-c1ccc(C)o1)nc1ccccc12 | 41 | 90.8 | 93.6 | 79.1 | 88.4 | 85.1 | 99.7 | 73.3 | 70.5 | 63.4 | 71.6 | 93.8 | 71.1 | 69.6 | 80.3 | – | 85.3 | 76.7 | 74.2 | 68.4 | Activity (LA-N-5): Active
4 | CC(=O)c1c(C)[nH]c2c1c(-c1ccccc1)nc1ccccc12 | 76.7 | 75.1 | 76.7 | 36.6 | 73.7 | 62.4 | 82.5 | 84.4 | 87.9 | 82.7 | 92.6 | 42.3 | 72.3 | 78.6 | 71.9 | Active | 54 | 106 | 87.2 | 92.8 | IG50 (MCF7 [3]): 10 µM; IG50 (HeLa): 10 µM; GI50 at 4 h [4]: 10 µM
5 | CC(=O)c1c(C)[nH]c2c1c(-c1cc3c(cc1Br)OCO3)nc1ccccc12 | 99.7 | 105 | – | 61.5 | 70.2 | – | 91.4 | 88.2 | 96.9 | – | 85.2 | 84 | 77 | 85.5 | 74 | – | 95.6 | 83.8 | 92 | – | growth at 10 µM (HCT-116): 98.9%; growth at 10 µM (A549): 88.7%; growth at 10 µM (HCT-15): 97.2%; growth at 10 µM (ACHN): 93%; growth at 10 µM (HOP-62): 91.5%; growth at 10 µM (IGROV-1): 82.5%; growth at 10 µM (LOX IMVI): 89.3%; growth at 10 µM (SF-295): 94.2%; growth at 10 µM (SK-OV-3): 96.7%; growth at 10 µM (MDA-MB-435): 95.6%; growth at 10 µM (MDA-MB-468): 109%; growth at 10 µM (KM12): 91%; growth at 10 µM (EKVX): 89.6%
6 | CC(=O)c1c(C)n(C)c2c1c(-c1ccccc1)nc1ccccc12 | 88.4 | 96.4 | 101 | 68.8 | 95.6 | 87.8 | 98.9 | 94.3 | 79.4 | 76.8 | 102 | 85.8 | 95.6 | 69.8 | 94.7 | Active | 87.2 | 89.4 | 92.7 | 112 | –
7 | CC(=O)c1c(C)[nH]c2c1c(-c1cc(Cl)cc(Cl)c1O)nc1ccccc12 | 87.4 | 118 | – | 56.8 | 74 | – | 61.9 | 72 | 66.7 | – | 74.8 | 72.8 | 70 | 71.4 | 52.2 | – | 77.6 | 51.6 | 58.2 | – | growth at 10 µM (HCT-116): 75.2%; growth at 10 µM (A549): 83.5%; growth at 10 µM (HCT-15): 73.1%; growth at 10 µM (ACHN): 71.2%; growth at 10 µM (HOP-62): 79.9%; growth at 10 µM (IGROV-1): 75.6%; growth at 10 µM (LOX IMVI): 73.6%; growth at 10 µM (SF-295): 74.1%; growth at 10 µM (SK-OV-3): 75.2%; growth at 10 µM (MDA-MB-435): 85.6%; growth at 10 µM (MDA-MB-468): 89.7%; growth at 10 µM (KM12): 75.1%; growth at 10 µM (EKVX): 72.8%
8 | CCOC(=O)c1c(C)n(-c2ccccc2)c2c1c(-c1ccccc1)nc1ccccc12 | 87 | 94.7 | 86 | 80.8 | 85.1 | 74.7 | 95.9 | 73.4 | 88.1 | 89.1 | 86.4 | 80.4 | 81.2 | 74.5 | 89.9 | – | 91 | 84.3 | 88.8 | 100 | –
